Data as given in article PMC7851395 (British Journal of Cancer, 2020).

How the values were obtained:
P-STAT3 = experiment: Western blot of STAT3 phosphorylation; assay type: cell-based, human; conditions: H460, A549 and PC-9 cells, 12 h, concentration-dependently
Experimental: Tissue proteins were extracted with tissue protein lysate buffer. Cells were grown to different densities and extracted with cell protein lysate buffer. The protein was mixed with loading buffer and boiled for 10 min at 100 °C, then loaded and separated by 10% or 12% sodium dodecyl sulfate-polyacrylamide gel (SDS-PAGE) and then transferred onto a PVDF membrane blocking with 5% skim milk. The blots were incubated overnight with specific primary antibodies at 4 °C. On the second day, after washing with TBST (a mixture of tris-buffered saline (TBS) and Tween 20) three times, the […] membranes were incubated with horseradish peroxidase-conjugated secondary antibodies for 1 h. The immunoreactive bands were visualised with enhanced chemiluminescence reagent.

[1] = Pharmacokinetic study in rat plasma (LC-MS/MS); assay type: in vivo, S.D. rats
Experimental: For the pharmacokinetic study, female S.D. rats (body weight 200 ± 10 g) have fasted overnight with free access to water before the experiment. Twelve rats were randomly divided into four groups. The time schedule included eight timepoints, and three S.D. rats were sampled at each time-point. Bufalin and acetyl-bufalin were administered intravenously and intraperitoneally to the rats at the dose of 0.25 mg/kg and 2 mg/kg, respectively. The animals had free access to water during the experiment. Blood samples were collected from the retro-orbital plexus of each rat at 0.083, 0.25, 0.5, 1, 2, 4, 6, 8, 12, 24 h after administration. Plasma was separated from the blood after centrifugation at 6000×g for 10 min and frozen at −20 °C until analysis. In total, 20 µL of standard samples in duplicate, quality control samples in duplicate and rat plasma samples were mixed with 60 µL of ethyl acetate containing IS (200 ng/mL of tolbutamide, 50 ng/mL of propranolol and 500 ng/mL of Dic) in EP tubes. After the mixture was vortexed for 1 min, then centrifuged for 10 min (13,000 rpm, 4 °C), transferred 50 µL supernatant to a 96-well plate with 150 µL purred water, shacked for 10 min and finally injected 5 µL into liquid chromatographic-tandem mass spectrometry (LC-MS/MS) system for analysis.

[2] = system: human umbilical vein endothelial cell HUVEC; experiment: MTT cytotoxicity assay, normal HUVEC cells; assay type: cell-based
Experimental: (§1) The cytotoxicity and viability of human NSCLC cells and normal cells were determined by MTT assay. MTT assay was performed as described previously.[22] MTT assay was used to determine the cell cytotoxicity and viability in human NSCLC cells. Cells (5 × 10^3 cells/well) were plated in 96-well plates and attached overnight. After the proper treatment, the MTT solution was added at 25 µL/well and incubated at 37 °C for 4 h. The formazan crystals were dissolved in 150 µL of DMSO, and the optical density (OD) was measured using a Microplate Reader at 490 nm. The cell viability was calculated by the following formula: viability = (average OD values of treatment wells/average OD values of vehicle control wells) × 100%. And half-maximal inhibitory concentration (IC50) values were determined by GraphPad Pro Prism 7.0.

H460 cells = experiment: MTT cytotoxicity assay, H460 cells; assay type: cell-based; conditions: Homo sapiens, NCI-H460; H460 cells, 48 h, MTT; read-out: IC50
Experimental: as §1

PC-9 cells = experiment: Wound-healing migration assay; assay type: cell-based, human; conditions: 25, 50, 100 nM, 48 h
Experimental: The ability of cell migration was evaluated by wound-healing assay. The cells grew to 80–90% confluence in six-well plates and then scraped the cell monolayer at the centre of the wells with the tip of a sterile 10 μL pipette to form a clean, straight wound area. Then, the wells were washed with PBS to remove detached cells from the plates. After that, cells were cultured in serum-free RPMI medium with vehicle control or acetyl-bufalin (25, 50, 100 nM). The migration of cells to the wound area was photographed at the 0, 24 and 48 h timepoints with a microscope and imaging system (Leica, Wetzlar, Germany).

[3] = system: patient-derived human NSCLC xenografts; experiment: Patient-derived NSCLC xenograft (PDX) model; assay type: in vivo, mice; conditions: for average tumour volume: 14 days, vehicle 931.90 mm^3
Experimental: For the patient-derived human NSCLC xenografts (PDXs) animal model, four pairs of lung cancer samples were obtained from patients who had undergone surgical treatment of lung cancer in the First Affiliated Hospital of Wenzhou Medical University. Fresh tumour tissue was sterilely incised into ~3-mm^3 pieces and subcutaneously injected into immunodeficient NOD/SCID mice within 30 min. The remaining tumour tissues were stored at −80 °C. When the tumours have successfully engrafted, tumour samples were removed and passaged into the third generation of nude mice for the following studies. All 18 mice were allocated into three groups (n = 6) and received i.p. injection of acetyl-bufalin (1 mg/kg/2 days and 2 mg/kg/2 days) as compared with mice injected with PBS (vehicle group) every other day. Tumour volume was measured as V = (L × W × W)/2, in which L and W represent the length and width of tumour. After 14 days, all the mice were killed by cervical dislocation. The tumours, hearts, livers, kidneys and lungs were removed for use in the histology and western blot analysis.

[4] = system: normal lung cells BEAS-2B; experiment: MTT cytotoxicity assay, normal lung cells BEAS-2B; assay type: cell-based, human
Experimental: as §1

Question: With `CC(=O)OC1CCC2(C)C(CCC3C2CCC2(C)C(c4ccc(=O)oc4)CCC32O)C1` (centres unmarked) [acetyl-bufalin] as the compound, how does the P-STAT3 protein levels (P-STAT3) read?
Answer: reduced

Question: And the elimination in blood ([1]; 0.25 mg/kg i.v. and 2 mg/kg i.p.)?
Answer: much slower than bufalin

Question: And the Cmax ([1]; acetyl-bufalin and bufalin formed from it, compared with bufalin dosing)?
Answer: smaller

Question: And the “cytotoxic effect on normal cells” value [2]?
Answer: low toxicity

Question: And the IC50 (H460 cells)?
Answer: 0.0278 µM

Question: What about the PC-9 cell migration (PC-9 cells) of the same compound?
Answer: markedly blocked

Question: And the average tumour volume ([3]; 1 mg/kg per 2 days i.p.)?
Answer: 544.43 mm^3

Question: And the average tumour volume ([3]; 2 mg/kg per 2 days i.p.)?
Answer: 256.29 mm^3

Question: What about the “body weight of the mice” value ([3]; 1 and 2 mg/kg per 2 days i.p.) of the same compound?
Answer: stable

Question: And the “gross toxicities on heart, liver, kidney and lung” value ([3]; H&E staining, compared with vehicle)?
Answer: no gross toxicities

Question: And the “cytotoxic effect on normal cells” value [4]?
Answer: low toxicity
